The source of these data is patent US20130012506A1 (priority 2010, published 2013).

Molecules are shown by their SMILES. Converted amounts (≈) assume the structure as drawn. Read-outs that look alike come from different tables or passages of the source.

In data set [1] the test system is M. tuberculosis H37Rv-GFP inside Raw264.7 macrophages.
The subject of data set [2] is M. tuberculosis H37Rv-GFP. The data set is described as follows: microbe, parasite or virus in culture. The conditions noted are these: Mycobacterium tuberculosis, read-out: minimal inhibitory concentration (MIC).
For data set [3], the system named is M. tuberculosis H37Rv-GFP inside Raw264.7 macrophages. Kind of data set: microbe, parasite or virus in culture. Particulars: Mycobacterium tuberculosis, 120 h, read-out: minimal inhibitory concentration (MIC).
Data set [4] deals with M. tuberculosis H37Rv. Kind of data set: Bacteria killing activity by CFU counting, aerobic incubation. It is filed as cell-based, Mycobacterium tuberculosis. On the procedure:
FIG. 8 illustrates the colony forming units (CFUs) recovered from macrophages at different time points after infection with M. tuberculosis H37Rv. Cells were infected and treated with the indicated amount of pyridopyrimidione compound 71 (4 to 20 μM);
The bacteria killing activity of compound 71 was determined using the CFU counting method. Two-fold serial dilutions of compound 71 were incubated aerobically with H37Rv for 21 days at 37° C.

Data set [5] deals with BJ- Skin. The data set is described as follows: Cytotoxicity assay (resazurin, 5 days). It is filed as cell-based. As to the method:
(§1) In order to address compound toxicity, seven cell lines originating from different body tissues were cultivated in the presence of 3-fold dilutions of compounds starting from 100 μM. After 5 days of culture, cell viability was assessed by the resazurin test. Briefly, cells were incubated with 10 μg/mL of resazurin (Sigma-Aldrich St. Louis, Mo.) for 4 h at 37° C. under 5% CO2. Resofurin fluorescence (RFU) was measured as indicated above. Percentage of toxicity on cells was calculated as follows: Cytotoxicity (%)=(RFUDMSO−RFUBlank)−(RFUcompound−RFUblank)/(RFUDMSO−RFUBlank)×100. Percentage of cytotoxicity was plotted against compound concentration and the minimal toxic concentration (MTC50) was determined by non-linear regression analysis as the lowest compound concentration where fifty percent toxicity was observed on the corresponding cell line.
(§2) To address the issue of toxicity, compound 133 was tested on a panel of seven cell lines derived from different body tissue. Cells were incubated with increasing amounts of compound and cell viability was assessed with resazurin after 5 days of co-incubation. Percentage of cytotoxicity was determined by taking as a reference the resofurin fluorescence measured by DMSO containing wells. The concentration where fifty percent of the cells died was defined as the Minimal Toxic Concentration (MTC50).

The subject of data set [6] is HEK293- Kidney. Kind of data set: Cytotoxicity assay (resazurin, 5 days). Particulars: HEK293, 5 days. Format: cell-based. On the procedure: as §1, §2
Background: Resazurin is reduced to fluorescent resorufin, in cell work by metabolically active cells.

Data set [7] relates to HepG2-Hepatocytes. Kind of data set: Cytotoxicity assay (resazurin, 5 days). It is filed as cell-based. The conditions noted are these: HepG2, 5 days. On the procedure:
as §1, §2

Data set [8] deals with Jurkat -T-cell. Kind of data set: Cytotoxicity assay (resazurin, 5 days). Format: cell-based. As to the method:
as §1, §2

Data set [9] relates to MRC5- Lung. Kind of data set: Cytotoxicity assay (resazurin, 5 days). It is filed as cell-based. Particulars: MRC5, 5 days. As to the method: as §1, §2
Data set [10] relates to SK-N-SH -Brain. Kind of data set: Cytotoxicity assay (resazurin, 5 days). It is filed as cell-based. On the procedure: as §1, §2
The subject of data set [11] is THP-1 - Monocytes. Kind of data set: Cytotoxicity assay (resazurin, 5 days). It is filed as cell-based. The conditions noted are these: THP-1, 5 days. As to the method:
as §1, §2

Data set [12] concerns seven cell lines derived from different body tissue. The data set is described as follows: Cytotoxicity assay on a panel of seven cell lines. It is filed as cell-based. The conditions noted are these: all tested cell lines, 5 days of co-incubation. On the procedure:
as §1, §2

Data set [13] deals with M. tuberculosis clinical isolates. It is filed as cell-based, Mycobacterium tuberculosis.
Data set [14] deals with M. tuberculosis H37Rv. Kind of data set: MIC on laboratory strain, in vitro bacterial growth assay. The conditions noted are these: Mycobacterium tuberculosis. Format: cell-based.
Data set [15] deals with M. tuberculosis H37Ra. The description is as above. Particulars: Mycobacterium tuberculosis. Format: cell-based.
Data set [16] concerns BCG Pasteur-Tokyo. The data set is described as follows: microbe, parasite or virus in culture. Format: cell-based. Particulars: Mycobacterium tuberculosis variant bovis BCG.
Data set [17] concerns M. smegmatis mc^2 155. Kind of data set: MIC on fast growing mycobacteria. Format: cell-based, Mycobacterium smegmatis.
The subject of data set [18] is Acinetobacter baumannii, Escherichia coli, Enterobacter cloacae, E. aerogenes, Klebsiella oxytoca, Pseudomonas aeruginosa, Salmonella enteridis, Vibrio mimicus. The data set is described as follows: Antimicrobial spectrum on clinical isolates, Gram-negative. Format: cell-based, Gram-negative bacteria.
In data set [19] the test system is Staphylococcus aureus, S. epidermis, S. capitis, S. xylosus, Micrococcus luteus, Listeria innocua, Lactobacillus gallinarum, group G Streptococcus …. The data set is described as follows: Antimicrobial spectrum on clinical isolates, Gram-positive. Format: cell-based, Gram-positive bacteria.
The subject of data set [20] is C. striatum, C. jeikeium. The data set is described as follows: Antimicrobial spectrum on clinical isolates, Corynebacterium. It is filed as cell-based.
Data set [21] relates to Candida albicans, C. glabrata, C. parapsilosis. Kind of data set: Antimicrobial spectrum on clinical isolates, Fungi. It is filed as cell-based.
For data set [22], the system named is M. tuberculosis H37Rv in mouse macrophages. The data set is described as follows: CFU determination in infected mouse macrophages. It is filed as cell-based, Mycobacterium tuberculosis. Particulars: mouse cells, seven days after infection.
In data set [23] the test system is M. tuberculosis H37Rv in human macrophages. Format: cell-based, Mycobacterium tuberculosis.
The subject of data set [24] is M. tuberculosis H37Rv-GFP. Kind of data set: in vitro. The conditions noted are these: Mycobacterium tuberculosis.
For data set [25], the system named is M. tuberculosis H37Rv-GFP inside Raw264.7 macrophages. Kind of data set: in vitro. The conditions noted are these: mouse.
Data set [26] concerns Primary BMDM. Kind of data set: Cytotoxicity assay (resazurin, 5 days).
Data set [27] has as its system Primary human macrophages. Kind of data set: Cytotoxicity assay (resazurin, 5 days).
Data set [28] concerns M. tuberculosis in primary macrophages. It is filed as cell-based, Mycobacterium tuberculosis.

For orientation: melting point means the temperature, or range, at which the solid turns liquid. Consider `CNC(=O)c1c(Nc2ccc(F)c(Cl)c2)nc2c(OC)cccn2c1=O`, for which the melting point was 218 °C (dec.).
Turning to `COc1cccn2c(=O)c(CO)c(Nc3ccc(F)c(F)c3)nc12`, the melting point is 231 °C (dec.).
Still for that read-out and setting: under `Cn1cnc2ccc(Nc3nc4c(F)cccn4c(=O)c3CO)cc21` stands 209 °C (dec.); under `COc1cccn2c(=O)c(Br)c(Nc3ccc4ncccc4c3)nc12`, 248 to 249 °C.
Still for that read-out and setting: with `COC(=O)c1ccc(Nc2nc3c(OC)cccn3c(=O)c2CO)nc1` the figure was 231 to 232 °C (dec.).
Take `NNC(=O)c1ccncc1` [INH, isoniazid]: the “Calculated MICs from the image based quantification of the infection ratio” value in [1] is 0.16 ± 0.05 µg/mL. Also, the “cells that appear to be infected” value in data set [1] amounted to 10%. Moreover, the MIC in data set [2] and in data set [3] was 0.1 µg/mL (≈ 0.729 µM) each time.
As for `COc1cccn2c(=O)c(CO)c(Nc3ccc4ncccc4c3)nc12` [compound 71, 3-(Hydroxymethyl)-9-methoxy-2-(quinolin-6-ylamino)-4H-pyrido[1,2-a]pyrimidin-4-one], in [4] (0.04 to 20 μM, H37Rv, 21 days at 37° C.), the “growth of M. tuberculosis (CFU)” value is “strongly inhibited the growth of M. tuberculosis”. Moreover, in data set [4] (after 2 days of incubation), the “bacteria killing activity (CFU)” value is reported as “fast bacteria killing activity even at the lowest concentration”.
Turning to `Cc1cccn2c(=O)c(C=O)c(Nc3cccc(Cl)c3)nc12` [compound 133, 2-(3-Chlorophenylamino)-9-methyl-4-oxo-4H-pyrido[1,2-a]pyrimidine-3-carbaldehyde], the “Range of MTC50” value in [5], in [6], in data set [7], in data set [8], in [9] and in data set [10] was greater than 100 µM each time. Besides, the “Range of MTC50” value in data set [11], in data set [26] and in [27] was greater than 100 µM throughout. Moreover, the “cytotoxicity (Minimal Toxic Concentration, MTC50)” value in [12] was greater than 100 µM. The “Range of MICs for multiple strains (μM)” value in data set [13] (Drug Sensitive, Tissue, 2 isolates) is 2.5-5^ μM; in data set [13] (XDR, Tissue, 5 isolates) it was 0.3-5^ μM. Besides, the “Range of MICs for multiple strains” value was 0.3 to 1.2 µM in [13] (INH^R RIF^R Strep^R, Sputum, 3 isolates); 1.2 µM in data set [13] (INH^R RIF^R Strep^R, Tissue, 1 isolate); 0.3 to 1.2 µM in data set [13] (MDR, Sputum, 3 isolates); 1.2 µM in [13] (MDR, Tissue, 1 isolate); 2.5 µM in data set [13] (RIF^R, Sputum, 1 isolate); 1.2 µM in [13] (RIF^R, Tissue, 1 isolate). Besides, the “Range of MICs for multiple strains” value in [13] (XDR, Sputum, 4 isolates) was in the range of 0.6 to 2.5 µM. Besides, the MIC was 2 µM (≈ 0.627 µg/mL) in data set [14]; 2 µM (≈ 0.627 µg/mL) in data set [15]; 2 µM (≈ 0.627 µg/mL) in data set [16]; “no effect” in data set [17]; greater than 100 µM in [17] (Mycolicibacterium smegmatis, MC^2155, read-out: MIC). Also, the “Antibacterial activity & Specificity” value in data set [18], in data set [19], in data set [20] and in [21] was “NE (NE: No effect up to 100 μg/mL equivalent to 320 μM)” in each case. Besides, the “decrease in the number of CFUs” value in data set [22] and in [23] was “ten-fold decrease in the number of CFUs” each time. The selectivity ratio in data set [24] and in data set [25] was greater than 50 in each case.
As to `Cc1cccn2c(=O)c(CO)c(Nc3cccc(Cl)c3)nc12` [compound 232, 2-(3-Chlorophenylamino)-3-(hydroxymethyl)-9-methyl-4H-pyrido[1,2-a]pyrimidin-4-one], the “decrease in the number of CFUs” value in data set [22] and in data set [23] was “ten-fold decrease in the number of CFUs” in each case. Further, the “bacterial load and host cell abundance” value in [28] is “harbored fewer bacteria compared to DMSO control and were more abundant”.
With `CO[C@H]1/C=C/O[C@@]2(C)Oc3c(C)c(O)c4c(O)c(c(/C=N/N5CCN(C)CC5)c(O)c4c3C2=O)NC(=O)/C(C)=C\C=C\[C@H](C)[C@H](O)[C@@H](C)[C@@H](O)[C@@H](C)[C@H](OC(C)=O)[C@@H]1C` [rifampin], in data set [1], the “Calculated MICs from the image based quantification of the infection ratio” value is 2.4 ± 1.3 µg/mL and the “cells that appear to be infected” value came out at 10%.
